Reference: patent US20130281504A1, “Reduction of Microglia-Mediated Neurotoxicity by KCa3.1 Inhibition” (THE REGENTS OF THE UNIVERSITY OF CALIFORNIA, priority 2010, published 2013)
Several values for one entry are separate records, joined by “and”; a condition that tells them apart may be missing. Equal entries are not always repeated.

Experiments:
plasma protein = test: Plasma protein binding by ultrafiltration; assay type: in vitro ADME, rat
Protocol: (§1) The centrifugate (=free TRAM-34) was directly analyzed for TRAM-34 by HPLC-MS. The retentate was collected by inverting the filter into an Eppendorf tube and spinning at 14000 rpm for 15 min.

[1] = Plasma protein binding by ultrafiltration; assay type: in vitro ADME, rat; settings: rat plasma spiked with 50 and 100 μM
Protocol: as §1

[2] = test system: middle cerebral artery occlusion (MCAO); test: MCAO with 7 days of reperfusion, treatment started 12 h after reperfusion; assay type: in vivo, rat; set-up: key to neurological deficit, 4-score system: 0 = no deficit to 4 = most severe deficit; key to neurological deficit, 14-score system: 14-point limb placing score; lower = more severe deficit; settings: for mean infarct size (H&E defined lesion area): controls 22.6±3.6%
Text: Adult male Wistar rats weighing 160-180 g were purchased from Charles River (Wilmington, Mass.), acclimatized to the new vivarium for 5-7 days and used for the surgery when they weighed 200-230 g. Rats were anesthetized using box induction with 5% isoflurane and then maintained on 0.5%-1.5% isoflurane in medical grade oxygen via a facemask. In order to assure consistent reduction of cerebral blood flow (CBF) throughout the procedure, we affixed a small hand-made adaptor for the Laser Doppler probe (Moor Instruments, Wilmington, Del.) to the surface of the skull. The center of the adapter was 5 mm lateral to the central fusion line and 2.5 mm posterior to bregma. Instant adhesive and dental cement were applied to the base and around the edges of the small plastic adapter to hold the Doppler probe. The adapter with the attached probe remained in place throughout the MCAO surgery to confirm continuous occlusion and later the establishment of reperfusion. Focal cerebral ischemia was then induced by occlusion of the left middle cerebral artery (MCA). The left common carotid artery was surgically exposed, the external carotid artery was ligated distally from the common carotid artery, and a silicone rubber coated nylon monofilament with a tip diameter of 0.43±0.02 mm (Doccol Corp., Redlands, Calif.) was inserted into the external carotid artery and advanced into the internal carotid artery to block the origin of the middle cerebral artery (when maximum CBF reduction observed). The filament was kept in place for 90 min and then withdrawn and removed from the blood vessel to restore blood supply. […] Neurological deficits were scored according to a 4-score test and a tactile and/or proprioceptive limb-placing test as follows: 1) 4-score test (higher score for more severe neurological deficits): 0=no apparent deficit; 1=contralateral forelimb is consistently flexed during suspension by holding the tail; 2=decreasing grip ability on the contralateral forelimb while tail pulled; 3=spontaneous movement in all directions but circling to contralateral side when pulled by the tail; 4=spontaneous contralateral circling or depressed level of consciousness. 2) 14-score limb placing test (lower score for more severe neurological deficits): Proprioception, forward extension, lateral abduction, and adduction were tested with vision or tactile stimuli. For visual limb placing, rats were held and slowly moved forward or lateral toward the top of a table. Normal rats placed both forepaws on the tabletop. Tactile forward and lateral limb placing were tested by lightly contacting the table edge with the dorsal or lateral surface of a rat's paw while avoiding whisker contact and covering the eyes to avoid vision. For proprioceptive hind limb placing, each rat was pushed along the edge of an elevated platform in order to test proprioceptive hind limb adduction. The paw was pulled down and away from the platform edge, and the ability to retrieve and place the paw on the table surface upon sudden release was assessed. For each test, limb placing scores were 0=no placing; 1=incomplete and/or delayed (>2 seconds) placing; or 2=immediate and complete placing. For each body side, the maximum summed visual limb placing score was 4 and the maximum summed tactile and proprioceptive limb placing score, including the platform test, was 10.
Rats were euthanized with an overdose of isoflurane. Blood samples for determination of electrolytes, pH, pCO2, glucose and hemoglobin (I-STAT; Abbott, Princeton, N.J.) were drawn from the vena cava and brains quickly removed and sectioned into eight 2-mm thick slices starting from the frontal pole. Slices were then fixed in 10% buffer formalin embedded in paraffin and sectioned at 5 Sections were stained with hematoxylin & eosin and scanned. […]

microglia = test: Assay for nitric oxide (nitrite) in microglia conditioned medium; assay type: cell-based, mouse; settings: 24 hr
[3] = Physiological parameters by I-STAT in venous blood of MCAO rats; assay type: in vivo, rat; settings: ±SD
Protocol: […] […] Slices were then fixed in 10% buffer formalin embedded in paraffin and sectioned at 5 Sections were stained with hematoxylin & eosin and scanned. The resulting jpg images were analyzed in Adobe Photoshop CS3 for infarct area using the Magnetic Lasso tool to outline the area and the Histogram tool to determine the number of pixels in the respective area. Percent infarct for each slice was calculated as: (pixels in […]/pixels in whole control hemisphere)×100. Percentage of total infarct area of whole hemisphere was calculated as: (summation of pixels in infarct from 8 slices/summation of pixels in whole control hemisphere from 8 slices)×100. The degree of brain shrinkage was calculated from the same data.

NFκB = NFκB assay in microglia; assay type: cell-based, mouse; settings: 2 hrs; 20 μM doxycycline, 1 μM TRAM-34; FIG. 2E
Protocol: The detection of cells with active NFκB was performed according to the method described by Franciosi, S., et al.; (2006) J Neurosci 26, 11652-11664. Briefly, microglia were plated as described above and treated with activators for 2 hrs. Cells were fixed and stained with anti-NF-κBp65 antibody (1:250, Chemicon) and with the nuclear dye DAPI.

[4] = After Reperfusion, TRAM-34 10 mg/kg
[5] = After Reperfusion, TRAM-34 40 mg/kg
[6] = Day-7 after MCAO, TRAM-34 10 mg/kg
[7] = Day-7 after MCAO, TRAM-34 40 mg/kg

With `Clc1ccccc1C(c1ccccc1)(c1ccccc1)n1cccn1` [TRAM-34, 1-[(2-chlorophenyl)diphenylmethyl]-1H-pyrazole] the “unbound (=free) fraction” value (plasma protein; rat plasma) was 2.0±0.4% and 2%, the plasma protein binding (plasma protein; rat plasma spiked with 50 and 100 μM) was 98% and the fraction unbound [1] was 0.02. The “neurological deficit, 14-score system” value ([2]; 10 mg/kg group, 12 h after reperfusion (start of treatment), vehicle 4.3±0.94) was 4.8±0.63, the “neurological deficit, 4-score system” value ([2]; 10 mg/kg group, 12 hours after reperfusion (start of treatment), vehicle 3.1±0.20) was 3.3±0.50 and the “neurological deficit, 4-score system” value ([2]; 10 mg/kg, 196 h (=7 days) after reperfusion, vehicle 1.5±0.30, P=0.24) was 0.8±0.10. For the same compound, the “neurological deficit, 14-score system” value ([2]; 10 mg/kg, 196 h (=7 days) after reperfusion, vehicle 7.5±0.46, P=0.004) was 9.8±0.01, the “microglia activation (ED1+ area)” value ([2]; 10 mg/kg, delayed administration) was “did not result in a significant reduction” and the brain shrinkage ([2]; 10 mg/kg, P=0.11, not significant) was “tended to reduce”. The “number of TUNEL-positive cells in cortex and striatum” value ([2]; 10 mg/kg, P=0.143 cortex, 0.230 striatum) was “did not reach statistical significance”, the “mean infarct size (H&E defined lesion area)” value ([2]; 10 mg/kg, mean±SEM, P=0.039) was 11.3±2.8% and the “neurological deficit, 14-score system” value ([2]; 40 mg/kg group, 12 h after reperfusion (start of treatment), vehicle 4.3±0.94) was 3.4±0.46. The “neurological deficit, 4-score system” value ([2]; 40 mg/kg group, 12 hours after reperfusion (start of treatment), vehicle 3.1±0.20) was 3.0±0.80, the “neurological deficit, 4-score system” value ([2]; 40 mg/kg, day-7 / 196 h after reperfusion, vehicle 1.5±0.30, P=0.02) was 0.5 and 0.4±0.01 and the “neurological deficit, 14-score system” value ([2]; 40 mg/kg, day-7 / 196 h after reperfusion, vehicle 7.5±0.46, P<0.001) was 11±0.38 and 12. For the same compound, the “number of apoptotic (TUNEL positive) cells in cortex and striatum” value ([2]; 40 mg/kg, P=0.0067 cortex, 0.033 striatum) was “significantly reduced”, the “average number of surviving NeuN+ neurons in the infarcted hemisphere” value ([2]; 40 mg/kg, P=0.052) was “increase” and the “mean infarct size (H&E defined lesion area)” value ([2]; 40 mg/kg, P=0.004) was 8.1±1.9%. For the same compound, the “ED1+ area in the infarcted hemisphere” value ([2]; 40 mg/kg, vehicle 3770.6±594.2, P=0.03, mean±SEM) was 1632.6±363.75 pixels/mm^2, the “reduction of infarct area (H&E, day-7)” value ([2]; 10 or 40 mg/kg i.p. twice daily 7 days from 12 h after reperfusion, both doses) was ~50% and the “microglia NO production, compound alone” value (microglia; without AβO) was “did not affect NO production”. For the same compound, the “AβO-induced increase of microglia NO production” value (microglia; 20 μM doxycycline, 1 μM TRAM-34, FIG. 2F) was “prevented”, the “HCO3^−” value [3, 4] was 33.8 ± 6.4 mmol/L and the Hemoglobin [3, 4] was 14.3 ± 1.5 g/dL. For the same compound, the “K^+” value [3, 4] was 6.3 ± 1.1 mmol/L, the pCO2 [3, 4] was 66.6 ± 28.3 mm Hg and the pH [3, 4] was 7.34 ± 0.1. For the same compound, the Hemoglobin [3, 5] was 14.5 ± 1.4 g/dL, the “K^+” value [3, 5] was 5.7 ± 0.5 mmol/L and the “Na^+” value [3, 5] was 135.5 ± 2.3 mmol/L. For the same compound, the pCO2 [3, 5] was 60.8 ± 33.4 mm Hg, the BUN [3, 6] was 18.7 ± 6.8 mg/dL and the Glucose [3, 6] was 185.2 ± 41.2 mg/dL. For the same compound, the “HCO3^−” value [3, 6] was 29.7 ± 2.5 mmol/L, the Hemoglobin [3, 6] was 12.7 ± 2.1 g/dL and the “K^+” value [3, 6] was 4.8 ± 1.1 mmol/L. The “Na^+” value [3, 6] was 137.7 ± 4.1 mmol/L, the pCO2 [3, 6] was 58.1 ± 12.7 mm Hg and the pH [3, 6] was 7.3 ± 0.06. The BUN [3, 7] was 19.6 ± 4.7 mg/dL, the Glucose [3, 7] was 201.1 ± 40.1 mg/dL and the “HCO3^−” value [3, 7] was 29.2 ± 1.3 mmol/L. For the same compound, the Hemoglobin [3, 7] was 13.3 ± 1.5 g/dL, the “K^+” value [3, 7] was 4.2 ± 0.3 mmol/L and the “Na^+” value [3, 7] was 138.8 ± 3.5 mmol/L. The pCO2 [3, 7] was 49.3 ± 7.3 mm Hg, the pH [3, 7] was 7.4 ± 0.07 and the “AβO-induced NFκB activation (p65-immunoreactive cells)” value (NFκB) was “prevented”. For the same compound, the “LPS-induced NFκB activation” value (NFκB) was “not significantly”.
